# Article PMC3390344, “Antibacterial Activity and Mechanism of a Scorpion Venom Peptide Derivative In Vitro and In Vivo” (PLoS ONE, 2012)
# Read-outs that look alike come from different tables or passages of the source.
# Legend:
# Assay type in all cases: cell-based
# [1] = system: methicillin-resistant S. aureus (MRSA) P1381; test: microbe, parasite or virus in culture
# Description: (§1) Clinical isolates were obtained from the 302nd military hospital of Beijing, China, including penicillin-resistant S. aureus (PRSA) P1383, penicillin-resistant S. epidermidis (PRSE) P1389, methicillin-resistant S. aureus (MRSA) P1381, P1386 and P1374, methicillin-resistant coagulase-negative Staphylococcus (MRCNS) P1369, and penicillin-sensitive S. epidermidis (PSSE) P1111.
# (§2) The MIC was determined via a microdilution assay in 96-well microtiter plates according to the broth microdilution guideline of Clinical and Laboratory Standards Institute (CLSI).
# [2] = system: methicillin-resistant S. aureus (MRSA) P1374; test: microbe, parasite or virus in culture
# Description: as §1, §2
# [3] = system: penicillin-resistant S. epidermidis (PRSE) P1389; test: microbe, parasite or virus in culture
# Description: as §1, §2
# [4] = system: penicillin-resistant S. aureus (PRSA) P1383; test: microbe, parasite or virus in culture
# Description: as §1, §2
# [5] = system: methicillin-resistant S. aureus (MRSA) P1386; test: microbe, parasite or virus in culture
# Description: as §1, §2
# [6] = system: penicillin-sensitive S. epidermidis (PSSE) P1111; test: microbe, parasite or virus in culture
# Description: as §1, §2
# [7] = system: methicillin-resistant coagulase-negative Staphylococcus (MRCNS) P1369; test: microbe, parasite or virus in culture; conditions: Staphylococcus
# Description: as §2
# S. aureus AB94004 = test: Enzyme release assay (catalase); conditions: S. aureus AB94004, 37°C; 0.9% saline negative control; Figure 4C
# Description: (§3) Figure 4 Secondary structure and enzyme release assay of Kn2-7. (A) and (B) Secondary structure analysis of the Kn2-7 and BmKn2 peptides. (A) Circular dichroism spectra of 0.1 mg/mL of Kn2-7 in water, 30% TFE/H2O or 70% TFE/H2O. (B) Circular dichroism spectra of 0.1 mg/mL of BmKn2 in water, 30% TFE/H2O or 70% TFE/H2O. (C) and (D) Enzyme release assay. (C) S. aureus AB94004 treated with Kn2-7 or BmKn2 was harvested, and the catalase activities of the supernatants were measured; 0.9% saline was used as the negative control, and ampicillin sodium was used as the antibiotic control. (D) E. coli AB94012 treated with Kn2-7 or BmKn2 was harvested, and the catalase activities in the supernatants were measured; 0.9% saline was used as the negative control, and kanamycin was used as the antibiotic control.
# (§4) Bacterial suspensions and serial-diluted peptides were mixed at a ratio of 4∶1 in different tubes with a final volume of 2 ml. The mixtures were then incubated at 37°C with continuous shaking. At each time point, 200 µl of the treated bacterial suspension was transferred to sterilized tubes. After centrifugation, the supernatants were transferred to a sterilized 1.5-ml tube, and catalase activity was measured with a Catalase Assay Kit (Beyotime, Jiangsu, China) using the method for measuring peroxidase activity.
# E. coli AB94012 [8] = test: Growth inhibitory assay (growth curves); conditions: at a concentration of 6.25 µg/mL; Figure 2C
# Description: Figure 2 Gowth inhibitory activities of Kn2-7. (A) Growth curves of S. aureus AB94004 treated with Kn2-7, BmKn2 or antibiotics. (B) Growth curves of MRSA P1386 treated with Kn2-7, BmKn2 or antibiotics. (C) Growth curves of E. coli AB94012 treated with Kn2-7, BmKn2 or antibiotics.
# The time growth curves of S. aureus and MRSA treated with BmKn2 or its derivatives were determined based on measurements taken at 630 nm at each time point. Different concentrations of peptide were added to the tested strains, which were cultured in 96-well plates using the same method as was used for determining the MIC.
# E. coli AB94012 [9] = test: Enzyme release assay (catalase); conditions: E. coli AB94012, 37°C; 0.9% saline negative control; Figure 4D
# Description: as §3, §4
# [10] = Staphylococcus epidermidis, read-out: MIC
Molecule,"MIC ([1]; Staphylococcus aureus, MRSA) [µg/mL]","MIC ([2]; Staphylococcus aureus, MRSA) [µg/mL]",MIC ([3]; Staphylococcus epidermidis) [µg/mL],MIC ([4]; Staphylococcus aureus) [µg/mL],"MIC ([5]; Staphylococcus aureus, MRSA) [µg/mL]","MIC [6, 10] [µg/mL]",MIC [7] [µg/mL],also measured
CO/N=C(\C(=O)N[C@@H]1C(=O)N2C(C(=O)O)=C(COC(C)=O)CS[C@H]12)c1csc(N)n1 [Cefotaxime],400,400,3.13,6.25,100,6.25,400,
CN[C@H](CC(C)C)C(=O)N[C@H]1C(=O)N[C@@H](CC(N)=O)C(=O)N[C@H]2C(=O)N[C@H]3C(=O)N[C@H](C(=O)N[C@H](C(=O)O)c4cc(O)cc(O)c4-c4cc3ccc4O)[C@H](O)c3ccc(c(Cl)c3)Oc3cc2cc(c3O[C@@H]2O[C@H](CO)[C@@H](O)[C@H](O)[C@H]2O[C@H]2C[C@](C)(N)[C@H](O)[C@H](C)O2)Oc2ccc(cc2Cl)[C@H]1O [Vancomycin],3.13,6.25,6.25,6.25,3.13,3.13,6.25,
"CC1(C)S[C@@H]2[C@H](NC(=O)[C@H](N)c3ccccc3)C(=O)N2[C@H]1C(=O)O [ampicillin, reference compound]",,,,,,,,Catalase activity of the supernatant over time (S. aureus AB94004): increasing catalase activity over time
"NC[C@H]1O[C@H](O[C@H]2[C@H](O)[C@@H](O[C@H]3O[C@H](CO)[C@@H](O)[C@H](N)[C@H]3O)[C@H](N)C[C@@H]2N)[C@H](O)[C@@H](O)[C@@H]1O [kanamycin, reference compound]",,,,,,,,Growth inhibition of E. coli AB94012 (growth curve) (E. coli AB94012 [8]): inhibited the growth of E. coli AB94012; Catalase activity of the supernatant over time (E. coli AB94012 [9]): increasing catalase activity over time
Penicillin,,,,,,,,"MIC ([1]; P1381, methicillin resistant (MRSA) clinical isolate, repeated at least three times): 5000 µg/mL; MIC ([2]; P1374, methicillin resistant (MRSA) clinical isolate, repeated at least three times): 5000 µg/mL; MIC ([3]; P1389, penicillin resistant (PRSE) clinical isolate, repeated at least three times): 10000 µg/mL; MIC ([4]; P1383, penicillin resistant (PRSA) clinical isolate, repeated at least three times): 10000 µg/mL; MIC ([5]; P1386, methicillin resistant (MRSA) clinical isolate, repeated at least three times): 10000 µg/mL; MIC ([6]; P1111, penicillin sensitive (PSSE) clinical isolate, repeated at least three times): 25 µg/mL"
